Data published in patent US9656981B2, “Peripherally-acting cannabinoid receptor agonists for chronic pain” (The Regents of the University of California, priority 2012, dated 2017).
Where two headings read alike, the source gives them in different places.

Tests used:
[1] = system: sciatic nerve entrapment (SNE) neuropathy; test: SNE neuropathy, mechanical allodynia (von Frey); format: in vivo, rat; conditions: for effect on contralateral hindpaw withdrawal thresholds / effect on SNE-induced mechanical allodynia (ipsilateral hindpaw withdrawal thresholds) / SNE Neuropath Assay-% return to pre-drug (0.3 mg/kg) contralateal threshold at 2-3 h: 0.3 mg/kg; for effect on contralateral hindpaw withdrawal thresholds: hindpaw contralateral to SNE; for effect on SNE-induced mechanical allodynia (ipsilateral hindpaw withdrawal thresholds): systemic injection; for effect of pretreatment with the CBR blocker on the anti-allodynic effect of PrNMI: blocker before PrNMI 0.6 mg/kg, SNE rats
Method: The effectiveness of CBR agonists was tested for alleviating the painful symptoms of neuropathy induced by unilateral sciatic nerve entrapment (SNE)^131. The peripheral neuropathy induced by SNE is highly comparative to that of chronic constriction injury (CCI), which uses chromic gut suture materials instead of polyethylene cuffs^132. […] This increased excitability is at least in part attributable to injury-induced post-transcriptional transport of the voltage-gated sodium channel 1.8 (NaV1.8) mRNA, axonal accumulation of NaV1.8 mRNA, and its local protein translation leading to the increased NaV1.8 functional expression in injured nerve^136. The hyperexcitability and ectopic burst discharge of primary sensory neurons are widely considered to be the major contributors to pain symptomatology of peripheral neuropathy models. The SNE-induced mechanical allodynia effectively models the most common complaint of human neuropathy patients of dynamic mechanical allodynia. Behavioral measurements of mechanical sensitivity were conducted before and after induction of SNE as follows:
Rats are placed in a plastic-walled cage (10×20×13 cm) with a metal mesh floor (0.6×0.6 cm holes) and allowed to acclimate for 10 min. The amount of pressure (g) needed to evoke a hindpaw withdrawal response is measured 4 times on each paw separated by 30-s intervals using a von Frey-type digital meter (Model 1601C, IITC Instr.). Results of 4 tests/session are averaged for each paw.

[2] = molecular target: CB2R (Homo sapiens, UniProt P34972); test: CB2R radioligand displacement binding assay (CP55940 radioligand)
Method: Detailed radioligand displacement assays (using the well-characterized CBR agonist […] as the radioligand) were conducted to determine the affinity (Ki) of the test compounds for CB1R and CB2R as has been previously described by our group^112,113. Heterologous competition binding assays were performed to calculate receptor affinities. Unlabeled SR141716 or SR144528 were used as appropriate controls for non-specific binding (NSB) in the assay. Calculation of the equilibrium dissociation constant (Ki) was performed using the Cheng-Prusoff equation.

[3] = molecular target: CB1R (Homo sapiens, UniProt P21554); test: CB1R radioligand displacement binding assay (CP55940 radioligand)
Method: Heterologous competition binding assays were performed to calculate receptor affinities. Unlabeled SR141716 or SR144528 were used as appropriate controls for non-specific binding (NSB) in the assay. Calculation of the equilibrium dissociation constant (Ki) was performed using the Cheng-Prusoff equation.

[4] = molecular target: human CB1R (hCB1R) (Homo sapiens, UniProt P21554); test: human CB1R (hCB1R) calcium flux assay; format: cell-based; conditions: Table 1; read-out: Ca Flux % Emax
Excerpt: Compounds were first screened for: a) CB1R and CB2R binding, b) CB1R agonist activity using the human CB1R (hCB1R) calcium flux assay, and c) BBB permeability using the Madin-Darby canine kidney (MDCK-MDR1) cell line assay.
The calcium 3 dye assays were run according to manufacturer's specifications (http://www.moleculardevices.com/Products/Assay-Kits/GPCRs/FLIPR-Calcium.html) and as reported in our previous publications^112,113. Briefly, wells of black clear-bottom 96-well tissue culture-treated plates are seeded with 20,000 cells the afternoon before assay. The day of assay, the cells are incubated with the Ca^2+ indicator dye for 1 hr @ 37° C. For antagonist assays, the test compound is preincubated with the cells during the last 10 min of the dye incubation. Basal or unstimulated fluorescence intensity is recorded in the FlexStation @ 37° C. for 13 sec followed by the addition of test compound or CP 55,940 (depending on the assay endpoint). Fluorescence intensity is recorded for an additional 47 sec. The effect of test compound in each well is determined by subtracting the minimum from the maximum fluorescence during the 47-sec recording period.

[5] = system: rats; test: Hypothermia test of the tetrad; format: in vivo, rat; conditions: 2-3 hr
Method: Rats are acclimated to a plastic restrainer apparatus (Model RTV-180 Braintree Scientific Inc.) on the day of testing by placing them in the restrainer twice for 5 min separated by 20 min. Baseline core temperature is taken before treatment, and the rectal temperature is measured again at various times after injection of the CB1R ligands.

[6] = system: rats; test: Catalepsy (ring) test of the tetrad; format: in vivo, rat
Method: Catalepsy (ring) test. Catalepsy was determined with a ring immobility test^154, modified for rats^139, 153. Rats are placed with their forepaws on a horizontal metal ring (12 cm diameter) at a height that allows their hindpaws to just touch the bench surface. Immobility is recorded as the time for the rat to move off the ring with a 100 s cutoff. Rats are tested before vehicle/drug injections and again at various times after injection.

[7] = S9 fraction stability assay; format: in vitro ADME; conditions: rat liver S9, 10 μM
Method: Compounds are incubated at 10 μM in rat (male Sprague Dawley) liver S9 at 37° C. Each compound is prepared in ethanol at a concentration of 1 mM. An assay mixture containing S9 (1 mg protein/mL final concentration) and an NADPH regenerating system (NADP [1 mM final], glucose 6-phosphate [5 mM final] and glucose 6-phosphate dehydrogenase [1 U/mL final]) in a buffer consisting of 50 mM KPO4 phosphate buffer, pH 7.4 with 3 mM MgCl2 is prepared and preincubated at 37° C. for 5 min. A 10 μL volume of the 1 mM solution is added to 990 μL of assay mixture in a glass test tube @ 37° C. to initiate the assay. Samples (50 μL) are removed at 0, 15, 30, 60 and 120 min and immediately extracted with 3 volumes (150 μL) of methanol, centrifuged to pellet protein and supernatants transferred to LC/MS vials for analysis.

[8] = system: rats; test: Rotarod test of the tetrad; format: in vivo, rat
Method: Rats were tested for motor function and the ataxic effects of novel drugs as described previously^151-153. To determine drug effects on motor coordination, rats are trained 72 h before the test (3 sessions 24 h apart) to remain for at least 180 s on a rotarod revolving at an acceleration of 4-40 revs over 5 min). Rats are tested immediately before vehicle or drug injections and tested again at 2, 6, 24 and 48 hrs after injection. The time for which the rats are able to remain on the rotarod is recorded up to a cut-off of 5 min.

[9] = Plasma stability assay; format: in vitro ADME; conditions: rat plasma, 10 μM
Method: Compounds are incubated at 10 μM in rat plasma at 37° C. A solution of each compound is prepared in ethanol at a concentration of 1 mM. A 2.5 μL volume of the 1 mM solution is added to 247.5 μL of rat plasma (male Sprague Dawley) in a glass test tube in a 37° C. water bath. Samples (50 μL) are removed at 0, 30 and 60 min and immediately extracted with 3 volumes (150 μL) of methanol. Samples are centrifuged (2500 rpm for 10 min at 4° C.) to pellet protein and supernatants transferred to LC/MS vials for analysis. Samples are stored at −80° C. prior to analysis.

[10] = Table 1, CP55940 radioligand, read-out: CB2_KI_CP
[11] = Table 1, CP55940 radioligand, read-out: CB1_KI_CP
[12] = read-out: CB1R binding affinity (Ki)

Sequence of CB2R (P34972 whole entry): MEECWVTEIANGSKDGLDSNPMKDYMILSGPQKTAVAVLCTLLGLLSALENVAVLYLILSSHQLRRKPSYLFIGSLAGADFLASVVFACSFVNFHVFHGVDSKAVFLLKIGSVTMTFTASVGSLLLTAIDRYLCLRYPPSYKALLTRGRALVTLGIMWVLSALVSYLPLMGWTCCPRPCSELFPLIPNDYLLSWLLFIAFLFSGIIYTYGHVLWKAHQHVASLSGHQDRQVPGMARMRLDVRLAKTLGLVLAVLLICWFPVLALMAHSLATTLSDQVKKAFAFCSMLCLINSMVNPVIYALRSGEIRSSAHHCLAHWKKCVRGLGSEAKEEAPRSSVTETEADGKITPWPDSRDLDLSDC
Sequence of human CB1R (hCB1R) (P21554 whole entry): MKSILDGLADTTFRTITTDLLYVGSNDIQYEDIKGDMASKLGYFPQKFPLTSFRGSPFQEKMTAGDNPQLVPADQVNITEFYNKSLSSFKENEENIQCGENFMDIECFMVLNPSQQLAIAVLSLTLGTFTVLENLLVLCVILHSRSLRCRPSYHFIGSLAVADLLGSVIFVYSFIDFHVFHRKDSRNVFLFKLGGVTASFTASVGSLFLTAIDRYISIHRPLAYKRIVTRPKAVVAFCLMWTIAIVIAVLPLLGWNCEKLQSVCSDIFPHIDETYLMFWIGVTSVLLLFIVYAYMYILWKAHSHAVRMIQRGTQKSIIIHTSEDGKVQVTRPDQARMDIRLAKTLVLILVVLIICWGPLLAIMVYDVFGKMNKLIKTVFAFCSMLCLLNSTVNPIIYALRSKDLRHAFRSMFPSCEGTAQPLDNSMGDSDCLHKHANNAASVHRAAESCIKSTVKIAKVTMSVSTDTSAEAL
Sequence of CB1R (P21554 whole entry): as above

Molecule | Ki [2, 10] | Ki [3, 11] | SNE Neuropath Assay-% return to pre-drug (0.3 mg/kg) contralateal threshold at 2-3 h [1] | Ki [2] | S9% remaining @ xy min ([7]; 60 min) | Plasma % remaining @ xy min ([9]; 60 min) | other results
4-{2-[(1E)-2-[(4- methoxy- naphthalen-1- yl)methylidene]- 1H-inden-3- yl]ethyl} morpholine [Compound 10] |  |  |  |  |  |  | effect on contralateral hindpaw withdrawal thresholds [1]: Neither ENMI nor 13339-135-25 had any significant effect
CCc1ccc(/C=C2\C=C(CCN3CCOCC3)c3ccccc32)c2ccccc12 [Compound 8, 4-{2-[(1E)-1-[(4-ethylnaphthalen-1-yl)methylidene]-1H-inden-3-yl]ethyl} morpholine] | 0.79 nM | 0.86 nM |  |  |  |  | Ki [3]: 1 nM; Emax [4]: 121%
C1=C(CCN2CCOCC2)c2ccccc2/C1=C/c1cccc2ccccc12 [Compound 11, 4-{2-[(1E)-1-(naphthalen-1-ylmethylidene)-1H-inden-3-yl]ethyl} morpholine] | 5.62 nM |  | 37.8% |  |  |  | Hypothermia % change from predrug (0.3 mg/kg) at 2-3 hr [5]: 0%; effect in the catalepsy assay ([6]; 0.3 mg/kg, intraperitoneal): complete lack of effects; Catalepsy % change from pre-drug (0.3 mg/kg) at 1-3 hrs [6]: 0%; S9% remaining @ xy min ([7]; 30 min): 35 @ 30%; effect in the rotarod assay ([8]; 0.3 mg/kg, intraperitoneal): complete lack of effects; Rotarod % change from pre-drug (0.3 mg/kg) at 2-3 hr [8]: 0%; effect on SNE-induced mechanical allodynia (ipsilateral hindpaw withdrawal thresholds) [1]: anti-allodynic effects; effect on contralateral hindpaw withdrawal thresholds [1]: Neither ENMI nor 13339-135-25 had any significant effect; Ki [3, 12]: 4.69 nM; Plasma % remaining @ xy min ([9]; 30 min): 95 @ 30%; Emax [4]: 103%
CCCCCn1cc(C(=O)c2ccc(C(=O)OC)c3ccccc23)c2ccccc21 [Compound 54, methyl 4-(1-pentyl-1H-indole-3-carbonyl) naphthalene-1-carboxylate] |  |  | 0% | 73.4 nM |  |  | S9% remaining @ xy min ([7]; 30 min): 2.62 @ 30%; S9% remaining @ xy min ([7]; 30 min, listed as 4-carbomethoxy ester): 3%; Ki [3, 12]: 20 nM; Plasma % remaining @ xy min ([9]; 30 min): 9.6 @ 30%
COC(=O)c1ccc(C(=O)c2cn(CCN3CCOCC3)c3ccccc23)c2ccccc12 [Compound 56, methyl 4-{1-[2-(morpholin-4-yl)ethyl]-1H-indole-3-carbonyl} naphthalene-1-carboxylate] |  | 52.4 nM |  | 61.4 nM | 0 @ 60% | 0 @ 60% | 
CCCCCn1cc(C(=O)c2ccc(C(=O)CC)c3ccccc23)c2ccccc21 [Compound 61, 1-[4-(1-pentyl-1H-indole-3-carbonyl)naphthalen-1-yl]propan-1-one] |  | 5.71 nM |  | 32.7 nM | 3 @ 60% | 75 @ 60% | 
CCCCCn1cc(C(=O)c2cccc3ccccc23)c2c(F)cccc21 [Compound 62, 4-fluoro-3-(naphthalene-1-carbonyl)-1-pentyl-1H-indole] | 35.6 nM | 6.5 nM |  |  | 5 @ 60% | 69 @ 60% | 
CCCCCn1cc(C(=O)c2cccc3ccccc23)c2cc(F)ccc21 [Compound 63, 5-fluoro-3-(naphthalene-1-carbonyl)-1-pentyl-1H-indole] | 65 nM | 9.85 nM |  |  | 13 @ 60% | 99 @ 60% | 
CCCCCn1cc(C(=O)c2cccc3ccccc23)c2ccc(F)cc21 [Compound 64, 6-fluoro-3-(naphthalene-1-carbonyl)-1-pentyl-1H-indole] | 16.4 nM | 2.35 nM | 54.4% |  |  |  | effect on SNE-induced mechanical allodynia (ipsilateral hindpaw withdrawal thresholds) [1]: anti-allodynic effects
CCCCCn1cc(C(=O)c2cccc3ccccc23)c2cccc(F)c21 [Compound 65, 7-fluoro-3-(naphthalene-1-carbonyl)-1-pentyl-1H-indole] | 2.7 nM | 3.62 nM | 18.6% |  | 50% | 97 @ 60% | Hypothermia % change from predrug (0.3 mg/kg) at 2-3 hr [5]: 0%; Catalepsy % change from pre-drug (0.3 mg/kg) at 1-3 hrs [6]: 0%; S9% remaining @ xy min ([7]; 30 min): ~58%; S9% remaining @ xy min ([7]; 120 min): 36%; Rotarod % change from pre-drug (0.3 mg/kg) at 2-3 hr [8]: 0%; Emax [4]: 79%
CCCc1ccc(C(=O)c2cn(CCCCCF)c3cccc(F)c23)c2ccccc12 [Compound 67, 4-fluoro-1-(5-fluoropentyl)-3-(4-propyl-naphthalene-1-carbonyl)-1H-indole] |  | 2.55 nM |  | 3.61 nM | 6 @ 60% | 95 @ 60% | 
Cc1c(C(=O)NN2CCCCC2)nn(-c2ccc(Cl)cc2Cl)c1-c1ccc(Cl)cc1 [SR141617A, rimonabant, reference compound] |  |  |  |  |  |  | effect of pretreatment with the CBR blocker on the anti-allodynic effect of PrNMI [1]: completely blocked
SR144528 [reference compound] |  |  |  |  |  |  | effect of pretreatment with the CBR blocker on the anti-allodynic effect of PrNMI [1]: little effect
